Assay results published in the OPERA property sets (Mansouri et al. 2018).

Conditions: for log10 BCF / log10 biotransformation half-life (days): fish

SMILES | melting point [°C] | boiling point [°C] | further results
CC(=O)Oc1ccccc1C(=O)O | 135 |  | log10 vapour pressure (mmHg): -4.6; ready biodegradability: readily biodegradable
Clc1c(Cl)c(Cl)c2c(c1Cl)Oc1ccccc1O2 | 188 |  | log10 Henry constant (atm·m³/mol): -4.7; log10 Koa: 9.7; log10 vapour pressure (mmHg): -7.32; log10 BCF: 3.46; log10 biotransformation half-life (days): 1.02
CC(C)CON=O |  | 67 | 
CCCNc1ccccc1 |  | 222 | 
Oc1ccc(Cc2ccc(O)cc2)cc1 | 162 |  | ready biodegradability: not readily biodegradable
NC(=O)CBr | 89 |  | 
CCN=C=O |  | 60 | 
COBOC | -131 | 25.9 | 
COC(=O)CCCCCCCCCCC(=O)OC | 31.9 |  | 
ClCCN(CCCl)c1ccc2ccccc2c1 | 55 |  | 
COc1ccc2c3c1O[C@H]1[C@@H](O)C=C[C@H]4[C@@H](C2)N(C)CC[C@@]341 | 158 |  | 
Cc1cccc2ccc3ccccc3c12 | 53.5 |  | 
CCCOc1ccccc1O |  | 227 | 
CC(C)(O)Cc1ccc(Cl)cc1 | 34 |  | 
CCCCCCOc1ccc(O)cc1 | 46 |  | 
ClCC1CC1 | -90.9 | 88 | 
Oc1cc(Cl)c(Br)cc1Cl |  |  | ready biodegradability: not readily biodegradable
CNC(=O)Oc1cccc2c1OC(C)(C)O2 |  |  | log10 Koc (L/kg): 2.75
O=C1C(O)=C(Cl)C(=O)C(O)=C1Cl | 284 |  | 
Cc1cc(C)c([N+](=O)[O-])cc1C | 71 | 265 | 
CCCCCC(C)Br (stereo not given) | 47 | 166 | log10 vapour pressure (mmHg): 0.358
Cc1cc(NS(=O)(=O)c2ccc(N)cc2)sn1 | 192 |  | 
C=CCc1cccc2ccccc12 |  | 266 | 
OCCCCCCCCCCF | 22 |  | 
NS(=O)(=O)c1ccc(SCCO)cc1 | 112 |  | 
CC(=CC(C)C)CC(C)C |  |  | log10 biotransformation half-life (days): 0.92

SMILES | melting point [°C] | boiling point [°C] | further results
Cc1c(N)cccc1N | 106 | 260 | log10 vapour pressure (mmHg): -2.61
CCOc1cccc2ccccc12 | 5.5 | 280 | 
COc1ccc([N+](=O)[O-])c(OC)c1 | 76.5 |  | 
COP(=O)(OC)SCn1c(=O)oc2cc(Cl)cnc21 | 89 |  | log10 vapour pressure (mmHg): -7.44
COc1cccc(Cl)n1 |  | 186 | 
CCCCCCCCCCCC(=O)OCCOC(=O)CCCCCCCCCCC | 56.6 |  | 
CC(C)(c1ccc(OC(F)(F)C(F)F)cc1)c1ccc(OC(F)(F)C(F)F)cc1 |  |  | log10 BCF: 4.35; log10 biotransformation half-life (days): 2.79
Cc1ccc(C(=O)c2ccccc2)cc1C | 47.5 | 341 | 
CN(C)c1ccc(/N=N/c2ccccc2C(=O)O)cc1 | 183 |  | 
CC[SiH](CC)CC |  | 109 | 
COP(=O)(OC)C(O)C(Cl)(Cl)Cl (stereo not given) | 77 |  | log10 Koc (L/kg): 1.9; log10 vapour pressure (mmHg): -5.11; ready biodegradability: not readily biodegradable
Cc1ccc(O)c(C(C)C)c1 | 36.5 | 228 | 
Nc1ccc(OCCCCCN2C(=O)c3ccccc3C2=O)cc1 | 114 |  | 
CCC1C(C)=NN=C(c2ccc(OC)c(OC)c2)c2cc(OC)c(OC)cc21 (stereo not given) | 156 |  | 
CC=Cc1ccc2c(c1)OCO2 | 8.2 | 253 | 
CCSC | -106 | 66.7 | log10 vapour pressure (mmHg): 2.2
c1ccc2c(c1)Cc1ccccc1-2 | 115 | 295 | log10 Henry constant (atm·m³/mol): -4.02; log10 Koa: 6.79; log10 Koc (L/kg): 3.7; log10 biodegradation half-life (days): 1.64; log10 vapour pressure (mmHg): -3.22; ready biodegradability: not readily biodegradable; log10 BCF: 2.72; log10 biotransformation half-life (days): 0.7
c1ccc(CNc2ccccc2)cc1 | 37.5 | 306 | 
CCC(N)CC |  | 89 | 
CCC(C)SC(C)CC (stereo not given) |  | 165 | 
CCCCC(C)CC (stereo not given) | -100 | 118 | log10 biodegradation half-life (days): 0.477; log10 vapour pressure (mmHg): 1.29
Clc1cccc(Br)c1 | -21.5 | 196 | 
C=C1CC[C@H](O)C/C1=C/C=C1\CCC[C@]2(C)[C@@H]([C@H](C)CCCC(C)C)CC[C@@H]12 | 84.5 |  | 
CCOP(=S)(OCC)OP(=S)(OCC)OCC |  |  | log10 vapour pressure (mmHg): -3.98
CNN | -52.4 | 87.5 | log10 vapour pressure (mmHg): 1.7; ready biodegradability: not readily biodegradable
Clc1ccc(-c2c(Cl)ccc(Cl)c2Cl)c(Cl)c1 |  |  | log10 biotransformation half-life (days): 2.61

SMILES | melting point [°C] | boiling point [°C] | further results
CCC(C)C(C)(C)C (stereo not given) |  |  | log10 biodegradation half-life (days): 0.845
Cc1cc(C(C)(C)C)cc(C(C)(C)C)c1O | 51 | 269 | 
Nc1ncnc2c1ncn2[C@@H]1O[C@H](CO)C[C@H]1O | 226 |  | 
Cc1cc(C2(c3ccc(O)c(C)c3)OC(=O)c3ccccc32)ccc1O | 223 |  | 
C=C(CC)CCC |  | 94 | 
O=P1(N(CCCl)CCCl)NCCCO1 (stereo not given) | 51.5 |  | ready biodegradability: not readily biodegradable
Cc1nnc(N)s1 | 224 |  | 
CCOC(=O)CC(O)(CC(=O)OCC)C(=O)OCC |  | 294 | 
OCC1=CCN2CC[C@@H](O)[C@@H]12 | 120 |  | 
CCC(Cl)Cl |  | 88.1 | log10 vapour pressure (mmHg): 1.83
O=C1OCCN1/N=C/c1ccc([N+](=O)[O-])o1 | 255 |  | 
O=C1CCc2ccccc2O1 | 25 | 272 | 
COC(=O)c1ccc2cc(C(=O)OC)ccc2c1 |  |  | ready biodegradability: not readily biodegradable
C1=CCC1 |  | 2 | 
Brc1c(Br)c(Br)c2c(c1Br)Oc1c(Br)c(Br)c(Br)c(Br)c1O2 | 376 |  | log10 vapour pressure (mmHg): -12.5
C=C(C)C(=O)OCCCC | -75 | 160 | log10 vapour pressure (mmHg): 0.326; ready biodegradability: readily biodegradable
C[C@@H]1O[C@@H](O[C@H]2CC[C@]3(C=O)[C@H]4CC[C@]5(C)[C@@H](c6ccc(=O)oc6)CC[C@]5(O)[C@@H]4CC[C@]3(O)C2)[C@H](O)[C@H](O)[C@H]1O[C@@H]1O[C@H](CO)[C@@H](O)[C@H](O)[C@H]1O | 284 |  | 
Cc1cncc(C)n1 | 47.5 | 156 | 
CC(=O)c1cccc(C(F)(F)F)c1 |  | 199 | 
CC(=O)Oc1cccnc1 |  |  | ready biodegradability: readily biodegradable
C[Si](C)(C)CCl |  | 98.5 | 
Cc1cccc(C(=O)O)c1C | 146 |  | 
Clc1ccc(C/C(=C\CN2CCCC2)c2ccccc2)cc1 | 48.5 |  | 
Cc1nonc1C | -7 | 156 | 
CC(CN1c2ccccc2Sc2ccccc21)[N+](C)(C)CCO.[Cl-] (stereo not given) | 233 |  | 
COc1ccccc1N(C)C |  | 210 | 

SMILES | melting point [°C] | boiling point [°C] | further results
Ic1cn[nH]c1 | 109 |  | 
CC(C)(Sc1cc(C(C)(C)C)c(O)c(C(C)(C)C)c1)Sc1cc(C(C)(C)C)c(O)c(C(C)(C)C)c1 | 125 |  | 
Cc1nc2ccc([N+](=O)[O-])cc2[nH]1 | 224 |  | 
c1ccc(N2CCOCC2)cc1 | 52.5 |  | 
CC1SC(C)SC(C)S1 (stereo not given) | 101 | 246 | 
CCCOC(=O)c1ccc(C(=O)OCCC)nc1 |  |  | ready biodegradability: not readily biodegradable
O=C(O)/C=C/CCCCCCCCC(=O)O | 166 |  | 
CCOC(=O)CCN(Cc1ccccc1)SN(C)C(=O)O/N=C(/C)SC | 47 |  | log10 vapour pressure (mmHg): -7.46
C=C(C)C=CC | 75.5 |  | 
Cc1ccc2occc2c1 |  | 198 | 
C[C@H](F)Cl |  | 16.2 | 
O=C(O)C(Cl)(Cl)CCl | 65.5 |  | 
CCCCCCC(=O)CC | -8 | 190 | 
CCCOC(=O)C(O)C(O)C(=O)OCCC (stereo not given) |  | 303 | 
FC(F)=CCl | -138 | -18.5 | log10 vapour pressure (mmHg): 3.55
CCCCC(C)CCC (stereo not given) | -113 | 142 | log10 biodegradation half-life (days): 0.699; log10 vapour pressure (mmHg): 0.835
Cc1[nH]c(=O)n(C(C)(C)C)c(=O)c1Cl | 176 |  | log10 Koc (L/kg): 1.66; log10 vapour pressure (mmHg): -6.33; ready biodegradability: not readily biodegradable
Clc1ccc(I)cc1 | 57 | 227 | log10 vapour pressure (mmHg): -1.23
N#Cc1cccc(C(=O)O)c1 | 219 |  | 
Cc1cccc(C)c2cc(C(C)C)cc1-2 | 32.3 |  | 
CCCCCCCCCCCCCCCC(=O)Cl | 12 |  | 
CCOC(=O)C1(C(=O)OCC)CCC1 |  | 224 | 
O=S1(=O)OCC2C(CO1)C1(Cl)C(Cl)=C(Cl)C2(Cl)C1(Cl)Cl (stereo not given) | 182 |  | log10 vapour pressure (mmHg): -6.55
Brc1nccs1 |  | 171 | 
Cc1ccc2[nH]ccc2c1 | 60 | 267 | 
Clc1cc(Cl)c2c(c1)oc1cc(Cl)cc(Cl)c12 | 207 |  | log10 vapour pressure (mmHg): -7.73

SMILES | melting point [°C] | boiling point [°C] | further results
CC(=O)Nc1ncc([N+](=O)[O-])s1 | 264 |  | 
CN(CCO)CCO | -21 | 247 | log10 vapour pressure (mmHg): -3.7; ready biodegradability: not readily biodegradable
CC(C)(C)N(NC(=O)c1ccccc1)C(=O)c1ccc(Cl)cc1Cl | 134 |  | 
CC1CC(C)C(C)C1 (stereo not given) | -132 | 117 | 
NNC(=O)CCCCC(=O)NN |  |  | ready biodegradability: not readily biodegradable
CCCCCCCCC(Br)CBr (stereo not given) | 28 |  | log10 vapour pressure (mmHg): -2.43
CCOCCN(Cc1ccc(CN(CCOCC)C(=O)C(Cl)Cl)cc1)C(=O)C(Cl)Cl | 140 |  | 
CCC(C)CC(C)C(C)C (stereo not given) |  | 161 | 
OCCN(CCO)c1nc(N2CCCCC2)c2nc(N(CCO)CCO)ncc2n1 | 158 |  | 
CCOC(=O)CCCCCC(=O)OCC | -24 | 254 | log10 vapour pressure (mmHg): -2.51
CCC(C)(Cl)Cl | -74 | 104 | 
O=C(O)CCCCCCCC(=O)O | 106 |  | log10 vapour pressure (mmHg): -7.97
CC(C)[C@@H](C)/C=C/[C@@H](C)[C@H]1CC[C@H]2C3=CC=C4C[C@@H](O)CC[C@]4(C)[C@H]3CC[C@]12C | 127 |  | 
Cc1ccc(O)c(-n2nc3ccccc3n2)c1 | 132 |  | 
O=c1[nH]c2ccccc2n1C1CCN(CCCC(c2ccc(F)cc2)c2ccc(F)cc2)CC1 | 216 |  | 
COC(=O)[C@@H]1[C@H]2C[C@H]3c4[nH]c5ccccc5c4CCN3C[C@@H]2CC[C@@H]1O | 251 |  | 
NN1CCCCC1 |  | 147 | 
O=S1(=O)CCCCO1 | 13.5 |  | 
CCCCOc1ccc(CC(=O)NO)cc1 | 154 |  | 
C[C@]12CC[C@H]3C(=CCc4cc(O)ccc43)[C@@H]1CC[C@@H]2O | 174 |  | 
CCCC(C)(O)C(C)(C)C (stereo not given) |  | 170 | 
NS(=O)(=O)c1cc2c(cc1Cl)NCNS2(=O)=O | 274 |  | 
CC1(C)[C@H]2CC[C@]1(C)[C@H](O)C2 |  | 210 | 
